Experimental data: the supplement of paper PMC10307832

Columns and labels:
Test in all cases: relative viability (nuclei count vs DMSO), 5 days (fraction); higher = more cells survive
[1] = compound: C[C@@H](N)c1ccc(C(=O)Nc2ccnc3[nH]ccc23)cc1 + CC1(C)CCC(c2ccc(Cl)cc2)=C(CN2CCN(c3ccc(C(=O)NS(=O)(=O)c4ccc(N[C@H](CCN5CCOCC5)CSc5ccccc5)c(S(=O)(=O)C(F)(F)F)c4)cc3)CC2)C1 [Navitoclax] (partner 0.5 µM)
Outline: (§1)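 Values are medians from duplicate plates. Each reflects relative viability, defined as the nuclei count of treated wells over that of vehicle wells. Lung cancer cell lines in 1536-well plates were pin-tool dosed one day after seeding with one drug alone or with a fixed anchor-drug dose plus five library-drug doses (not always all listed) in √10 steps, then fixed, stained and imaged at 4× after 5 days.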

[2] = compound: C1CNCCC1C2=CC(=NN2)C3=CC=NC=C3 + CS(=O)(=O)CCNCc1ccc(-c2ccc3ncnc(Nc4ccc(OCc5cccc(F)c5)c(Cl)c4)c3c2)o1 [Lapatinib] (partner 2 µM)
Outline: as §1

[3] = compound: C1CNCCC1C2=CC(=NN2)C3=CC=NC=C3 + CCNC(=O)c1noc(-c2cc(C(C)C)c(O)cc2O)c1-c1ccc(CN2CCOCC2)cc1 [Luminespib] (partner 0.01 µM)
Outline: as §1

Tanzisertib + OSI-027 = compound: O[C@H]1CC[C@H](Nc2ncc3nc(Nc4c(F)cc(F)cc4F)n([C@H]4CCOC4)c3n2)CC1 [Tanzisertib] + COc1cccc2cc(-c3nc([C@H]4CC[C@H](C(=O)O)CC4)n4ncnc(N)c34)[nH]c12 [OSI-027] (partner 0.5 µM)
Outline: as §1

Cell Line	relative viability ([1]; first compound 0.04 µM)	relative viability ([1]; first compound 0.1265 µM)	relative viability ([1]; first compound 0.4 µM)	relative viability ([1]; first compound 1.265 µM)	relative viability ([1]; first compound 4 µM)	relative viability ([2]; first compound 0.08 µM)	relative viability ([2]; first compound 0.8 µM)	relative viability ([2]; first compound 2.53 µM)	relative viability ([2]; first compound 8 µM)	relative viability ([3]; first compound 0.08 µM)	relative viability ([3]; first compound 0.8 µM)	relative viability ([3]; first compound 2.53 µM)	relative viability ([3]; first compound 8 µM)	relative viability (Tanzisertib + OSI-027; first compound 0.08 µM)	relative viability (Tanzisertib + OSI-027; first compound 0.253 µM)	relative viability (Tanzisertib + OSI-027; first compound 0.8 µM)	relative viability (Tanzisertib + OSI-027; first compound 2.53 µM)	relative viability (Tanzisertib + OSI-027; first compound 8 µM)
NCI-H727	0.524	0.579	0.676	0.484	0.411	0.717	0.847	1.01	0.981	0.27	0.693	0.453	0.36	0.618	0.564	0.643	0.483	0.647
HARA	1.14	1.2	1.19	1.27	0.889	0.755	0.874	0.736	0.701	0.647	0.72	0.793	0.687	0.74	0.496	0.537	0.45	0.0888
NCI-H2228	0.897	1.08	1.03	0.985	0.963	0.926	1.06	1.62	1.19	0.121	0.162	0.189	0.161	0.822	0.633	0.616	0.499	0.379
LCLC-97TM1	0.405	0.507	0.44	0.786	0.836	1.05	1.39	1.59	1.04	0.734	0.916	0.962	0.713	0.541	0.435	0.495	0.368	0.517
LC-2-ad	0.398	0.566	0.585	0.346	0.262	1.04	1.05	1	0.914	–	1.13	1.13	0.987	1.02	0.744	0.911	0.915	0.606
SK-LU-1	0.922	0.786	0.778	0.633	0.503	0.944	0.799	0.849	0.814	0.204	0.209	0.206	0.212	0.392	0.324	0.319	0.354	0.365
EKVX	0.914	1.15	1.32	1.07	0.807	0.211	0.184	0.208	0.208	0.855	0.609	0.987	0.8	0.872	0.749	0.613	0.612	0.598
HCC-827	0.872	0.993	0.971	1.05	0.843	0.207	0.174	0.22	0.166	0.571	0.522	0.749	0.57	0.857	0.763	0.775	0.678	0.44
NCI-H650	–	–	–	–	–	0.966	0.773	1.11	0.951	0.65	0.705	0.958	0.744	0.517	0.661	0.508	0.624	0.441
CAL-12T	1.3	1.33	1.48	1.77	1.47	0.714	0.613	0.811	0.666	0.606	0.734	0.457	0.819	0.612	0.633	0.62	0.748	0.635
NCI-H2342	–	–	–	–	–	–	–	–	–	0.716	0.781	0.888	0.857	0.663	0.718	0.571	0.537	0.583
SW 900	–	–	–	–	–	–	–	–	–	0.187	0.172	0.165	0.168	0.644	0.588	0.511	0.866	0.556
IA-LM	0.799	0.93	0.929	1.03	0.989	0.809	1.13	0.926	0.898	–	–	–	–	–	–	–	–	–
EPLC-272H	1.14	1.26	1.26	–	0.975	0.92	1	1.14	1.03	0.281	0.22	0.406	0.206	0.285	0.264	0.25	0.314	0.251
A-427	1.02	0.992	0.993	–	0.855	1.12	1.15	0.971	0.978	0.789	1.2	0.908	0.92	0.547	0.525	0.538	0.414	0.283
NCI-H647	0.978	1.19	0.942	–	0.762	1.06	1.26	1.15	1.01	0.151	0.21	0.157	0.101	0.694	0.644	0.569	0.63	0.69
NCI-H1975	1.13	0.978	0.995	0.652	0.434	0.905	1.08	1.05	0.83	0.166	0.214	0.193	0.254	0.926	0.773	0.671	0.673	0.587
NCI-H358	–	–	–	–	–	0.388	0.463	0.43	0.462	0.478	0.279	0.369	0.388	0.817	0.637	0.661	0.655	0.501
PC-3 [JPC-3]	0.833	0.866	0.907	0.897	0.798	0.426	0.446	0.499	0.471	0.643	0.673	0.7	0.556	0.862	0.721	0.833	0.789	0.699
NCI-H1792	0.668	0.592	0.644	0.415	0.567	0.893	0.851	0.913	0.788	0.43	0.414	0.636	0.483	0.752	0.716	0.728	0.676	0.446
